Data taken from PubChem BioAssay (NCI).
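Growth conditions: 96-well plates. Treatment: test compound, 48 hours, 5 concentrations. Analysis: linear interpolation between bracketing concentrations; unreached endpoints set to highest concentration. At the TGI there is no net growth.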

Legend:
Experiment in all cases: NCI-60 cell line screen, 48 h
CAKI-1 renal = test system: CAKI-1 renal
MDA-N = test system: MDA-N
ACHN renal = test system: ACHN renal
MALME-3M melanoma = test system: MALME-3M melanoma
M14 melanoma = test system: M14 melanoma
TK-10 renal = test system: TK-10 renal
A498 renal = test system: A498 renal
KM20L2 colon = test system: KM20L2 colon
DLD-1 colon = test system: DLD-1 colon
M19-MEL melanoma = test system: M19-MEL melanoma
LXFL 529 NSCLC = test system: LXFL 529 NSCLC

CN(C)CCNc1nc2ccccc2c2c1CCCC2
TGI (CAKI-1 renal): 44.7 µM | TGI (MDA-N): 33.9 µM | TGI (ACHN renal): 65.3 µM | TGI (MALME-3M melanoma): 30.1 µM | TGI (M14 melanoma): 32.5 µM | TGI (TK-10 renal): 29.7 µM | TGI (A498 renal): 35.8 µM

C=C1CCCC2[C@](C)(CC3=C(Cl)C(=O)C=C(OC)C3=O)C(C)CC[C@]12C (stereo not given in full)
TGI (CAKI-1 renal): 8.83 µM | TGI (MDA-N): 13.7 µM | TGI (ACHN renal): 10.7 µM | TGI (MALME-3M melanoma): 16.3 µM | TGI (M14 melanoma): 10.3 µM | TGI (TK-10 renal): 11.6 µM | TGI (A498 renal): 16.2 µM

Cc1ccc(S(=O)(=O)CN2C(=O)C(c3ccccc3)(c3ccccc3)C23OC(c2ccc(Cl)cc2)=CC3=O)cc1 (stereo not given)
TGI (CAKI-1 renal): > 10 µM | TGI (MDA-N): > 10 µM | TGI (ACHN renal): > 10 µM | TGI (MALME-3M melanoma): > 10 µM | TGI (M14 melanoma): > 10 µM | TGI (TK-10 renal): > 10 µM | TGI (A498 renal): > 10 µM

Cc1sc2[nH]c(=O)oc(=O)c2c1C
TGI (CAKI-1 renal): > 100 µM | TGI (MDA-N): > 100 µM | TGI (ACHN renal): > 100 µM | TGI (MALME-3M melanoma): > 100 µM | TGI (M14 melanoma): > 100 µM | TGI (TK-10 renal): > 100 µM | TGI (A498 renal): > 100 µM

CCCCc1ccc(Nc2nc(Cl)c3ncn(COCCOC(C)=O)c3n2)cc1
TGI (MDA-N): 37 µM | TGI (ACHN renal): 32.7 µM | TGI (MALME-3M melanoma): 31.7 µM | TGI (M14 melanoma): 36.7 µM | TGI (TK-10 renal): 35.1 µM | TGI (A498 renal): 59.3 µM

CCc1c(CN)c(CC)c(CNC2=NCCN2)c(CC)c1CNC1=NCCN1
TGI (CAKI-1 renal): > 100 µM | TGI (MDA-N): > 100 µM | TGI (ACHN renal): > 100 µM | TGI (MALME-3M melanoma): > 100 µM | TGI (M14 melanoma): > 100 µM | TGI (TK-10 renal): > 100 µM | TGI (A498 renal): > 100 µM

COc1cc(/C=C2/SC(c3ccccc3)N(Cc3ccccc3)C2=O)cc(OC)c1OC (stereo not given)
TGI (CAKI-1 renal): > 100 µM | TGI (MDA-N): > 100 µM | TGI (ACHN renal): > 100 µM | TGI (MALME-3M melanoma): > 100 µM | TGI (M14 melanoma): > 100 µM | TGI (TK-10 renal): > 100 µM | TGI (A498 renal): > 100 µM

Cc1ccc(S(=O)(=O)N2CCN(S(=O)(=O)c3ccc(C)cc3)CCN(S(=O)(=O)c3ccc(C)cc3)Cc3cc(C#N)c(C#N)cc3CN(S(=O)(=O)c3ccc(C)cc3)CC2)cc1
TGI (CAKI-1 renal): > 100 µM | TGI (MDA-N): > 100 µM | TGI (ACHN renal): > 100 µM | TGI (MALME-3M melanoma): > 100 µM | TGI (M14 melanoma): 89.1 µM | TGI (TK-10 renal): > 100 µM | TGI (A498 renal): 58.2 µM

CC(C)(C)c1cc(-c2cc(C(C)(C)C)[nH]n2)n[nH]1
TGI (CAKI-1 renal): > 100 µM | TGI (MDA-N): > 100 µM | TGI (ACHN renal): > 100 µM | TGI (MALME-3M melanoma): > 100 µM | TGI (M14 melanoma): > 100 µM | TGI (TK-10 renal): > 100 µM | TGI (A498 renal): > 100 µM

CC(=O)N(C)c1ccc(N=CN(C)C)cc1
TGI (CAKI-1 renal): > 100 µM | TGI (MDA-N): > 100 µM | TGI (ACHN renal): > 100 µM | TGI (MALME-3M melanoma): > 100 µM | TGI (M14 melanoma): > 100 µM | TGI (TK-10 renal): > 100 µM | TGI (A498 renal): > 100 µM

O=C1c2cccnc2S(=O)(=O)N1c1ccc(Oc2ccccc2)cc1
TGI (CAKI-1 renal): > 100 µM | TGI (MDA-N): > 100 µM | TGI (ACHN renal): > 100 µM | TGI (MALME-3M melanoma): > 100 µM | TGI (M14 melanoma): > 100 µM | TGI (A498 renal): > 100 µM

N#C[C@H](C(=O)c1ccccc1F)c1nc2ccccc2s1
TGI (CAKI-1 renal): > 100 µM | TGI (MDA-N): > 100 µM | TGI (ACHN renal): > 100 µM | TGI (MALME-3M melanoma): 56.2 µM | TGI (M14 melanoma): > 100 µM | TGI (TK-10 renal): > 100 µM | TGI (A498 renal): > 100 µM

COc1ccc(OC)c(CSc2ccc(OC)c(OC)c2)c1
TGI (CAKI-1 renal): > 100 µM | TGI (MDA-N): > 100 µM | TGI (ACHN renal): > 100 µM | TGI (MALME-3M melanoma): > 100 µM | TGI (M14 melanoma): > 100 µM | TGI (TK-10 renal): > 100 µM | TGI (A498 renal): 99.3 µM

C1=NCCN2CCN(CCN=Cc3ccccc3OCc3cccc(n3)COc3ccccc31)CC2
TGI (MDA-N): 2.72 µM | TGI (ACHN renal): 25.6 µM | TGI (MALME-3M melanoma): 32.4 µM | TGI (M14 melanoma): > 50 µM | TGI (TK-10 renal): 24.9 µM | TGI (A498 renal): > 50 µM

CC1(C)CC(O)C2=C(O1)C(=O)c1ncccc1C2=O (stereo not given)
TGI (CAKI-1 renal): 4.45 µM | TGI (MDA-N): 3.45 µM | TGI (ACHN renal): 11.5 µM | TGI (MALME-3M melanoma): 3.17 µM | TGI (M14 melanoma): 4.22 µM | TGI (TK-10 renal): 20.1 µM | TGI (A498 renal): 18.6 µM

CCOc1ccc(N/C(=C(/C(Cl)=C(/Cl)Nc2ccccc2)[N+](=O)[O-])n2nnc3ccccc32)cc1
TGI (CAKI-1 renal): 60.4 µM | TGI (MDA-N): 40.3 µM | TGI (ACHN renal): > 100 µM | TGI (MALME-3M melanoma): 44.4 µM | TGI (M14 melanoma): 34 µM | TGI (TK-10 renal): > 100 µM | TGI (A498 renal): > 100 µM

Oc1cc(O)c2ccc(-c3ccc(O)c(O)c3)[o+]c2c1
TGI (CAKI-1 renal): > 100 µM | TGI (MDA-N): > 100 µM | TGI (ACHN renal): > 100 µM | TGI (MALME-3M melanoma): > 100 µM | TGI (M14 melanoma): > 100 µM | TGI (TK-10 renal): > 100 µM | TGI (A498 renal): > 100 µM

Clc1c(Cl)c(Cl)c2c(nnn2C2CCCO2)c1Cl (stereo not given)
TGI (CAKI-1 renal): 74.9 µM | TGI (MDA-N): 74.3 µM | TGI (MALME-3M melanoma): 80.4 µM | TGI (M14 melanoma): > 100 µM | TGI (TK-10 renal): > 100 µM | TGI (A498 renal): 88.7 µM

O=C1C(C(O)(C(F)(F)Cl)C(F)(F)Cl)CCCC1C(O)(C(F)(F)Cl)C(F)(F)Cl (stereo not given)
TGI (CAKI-1 renal): > 10 µM | TGI (MDA-N): > 10 µM | TGI (ACHN renal): > 10 µM | TGI (MALME-3M melanoma): > 10 µM | TGI (M14 melanoma): > 10 µM | TGI (TK-10 renal): > 10 µM | TGI (A498 renal): > 10 µM

NC(=O)C(=O)c1ncn(Cc2ccccc2)c1N
TGI (CAKI-1 renal): > 100 µM | TGI (MDA-N): > 100 µM | TGI (ACHN renal): > 100 µM | TGI (MALME-3M melanoma): > 100 µM | TGI (M14 melanoma): > 100 µM | TGI (TK-10 renal): > 100 µM | TGI (A498 renal): > 100 µM

CC(=O)OC1CC2CCN3C(=O)c4cc5c(cc4[C@H](C1OC(C)=O)C23)OCO5 (stereo not given in full)
TGI (KM20L2 colon): > 100 µM | TGI (ACHN renal): > 100 µM | TGI (DLD-1 colon): > 100 µM | TGI (MALME-3M melanoma): > 100 µM | TGI (M14 melanoma): > 100 µM | TGI (M19-MEL melanoma): > 100 µM | TGI (TK-10 renal): > 100 µM | TGI (LXFL 529 NSCLC): > 100 µM

COc1ccc(CC2C3=C(CCN2C(=O)C2CCC2)CC2(CC3)OCCO2)cc1O (stereo not given)
TGI (CAKI-1 renal): > 100 µM | TGI (MDA-N): 31.6 µM | TGI (ACHN renal): > 100 µM | TGI (MALME-3M melanoma): > 100 µM | TGI (M14 melanoma): 63.1 µM | TGI (TK-10 renal): > 100 µM | TGI (A498 renal): > 100 µM

COc1cc(C(=O)/C=C/c2ccc(OCCSCCCCCCCCCCSCCOc3ccc(/C=C/C(=O)c4cc(OC)c(OC)c(OC)c4)cc3)cc2)cc(OC)c1OC
TGI (CAKI-1 renal): > 100 µM | TGI (MDA-N): > 100 µM | TGI (ACHN renal): > 100 µM | TGI (MALME-3M melanoma): > 100 µM | TGI (M14 melanoma): > 100 µM | TGI (TK-10 renal): > 100 µM | TGI (A498 renal): > 100 µM

Cc1c(C)c(C)c(CC2(C)CSC2)c(CC2(C)CSC2)c1C
TGI (MDA-N): > 100 µM | TGI (ACHN renal): > 100 µM | TGI (MALME-3M melanoma): > 100 µM | TGI (M14 melanoma): > 100 µM | TGI (TK-10 renal): > 100 µM | TGI (A498 renal): > 100 µM

CC(=O)N1N=C(c2ccc3ccccc3c2O)CC1c1cccs1 (stereo not given)
TGI (CAKI-1 renal): > 100 µM | TGI (MDA-N): > 100 µM | TGI (ACHN renal): > 100 µM | TGI (MALME-3M melanoma): > 100 µM | TGI (M14 melanoma): 39.1 µM | TGI (TK-10 renal): > 100 µM | TGI (A498 renal): 44.5 µM

COc1cc(=O)c2c(O)c3c(O)oc(C)cc3c(OC)c2c1
TGI (CAKI-1 renal): 97.5 µM | TGI (MDA-N): 80.6 µM | TGI (ACHN renal): 63 µM | TGI (MALME-3M melanoma): 47 µM | TGI (M14 melanoma): 88.5 µM | TGI (TK-10 renal): 64.9 µM | TGI (A498 renal): > 100 µM

Cc1ccc(/C=N/n2c(Cc3ccccc3)n[nH]c2=O)cc1
TGI (CAKI-1 renal): > 100 µM | TGI (MDA-N): > 100 µM | TGI (ACHN renal): > 100 µM | TGI (MALME-3M melanoma): > 100 µM | TGI (M14 melanoma): > 100 µM | TGI (TK-10 renal): > 100 µM | TGI (A498 renal): > 100 µM
